Data on 3 compounds can be found in patent US11014925B2, “Co-crystals of 1-(4-fluoro-phenyl)-4-((6bR,1OaS)-3-methyl-2,3,6b,9,10,10a-hexahydro-1H,7H- pyrido[3′,4′:4,51_pyrrolo [1,2,3-delqcuinoxalin-8-yl)-butan-1-one with nicotinamide or isonicotinamide” (INTRA-CELLULAR THERAPIES, INC., priority 2016, dated 2021).

Like-named read-outs stand apart in the source and are kept apart here.

Series [1] can be described thus: Dynamic Vapour Sorption (DVS) hygroscopicity. The class given is physicochemical. On the procedure: Dynamic Vapour Sorption (DVS): The Dynamic Vapour Sorption studies are performed using a Surface Measurement Systems Ltd. DVS-1 No Video, equipment #2126. The sample is loaded into a balance pan, typically 20-30 mg, and equilibrated at 0% RH. After the material was dried, the RH is increased with 10% per step for 1 hour per increment, ending at 95% RH. After completion of the sorption cycle, the sample was dried using the same method. The software used for data collection is DVSWin v3.01 No Video. Data analysis is performed using DVS Standard Analysis Suite v6.3.0 (Standard).

Series [2] is described as follows: solubility, general statements. The conditions noted are these: general statement, solvent not given. The series is classed as physicochemical. On the procedure: Solubility of free base in various solvents is evaluated, and based on the results of the solubility range, suitable solvents are selected for the co-crystal screen. Co-crystal formation is based on hydrogen bonding and stacking of the molecules, meaning the co-former selection is based on active groups. Grinding is a method to form co-crystals, however the free base itself is an oil/sticky solid and therefore not suitable for this method. The free base and counter ion are added to a solution in a certain ratio to give the chance to form a co-crystal, similar to salt formation. We found the best method is to add a saturated solution of the co-former to that of the free base to find an optimal ratio for co-crystal formation.

Series [3] has as its target H1 histaminergic receptors (Homo sapiens, UniProt P35367). The conditions noted are these: cited from earlier work.
For a further series, the target named is T1, 5-HT2C receptors (Homo sapiens, UniProt P28335).
T1 sequence (P28335 33-458): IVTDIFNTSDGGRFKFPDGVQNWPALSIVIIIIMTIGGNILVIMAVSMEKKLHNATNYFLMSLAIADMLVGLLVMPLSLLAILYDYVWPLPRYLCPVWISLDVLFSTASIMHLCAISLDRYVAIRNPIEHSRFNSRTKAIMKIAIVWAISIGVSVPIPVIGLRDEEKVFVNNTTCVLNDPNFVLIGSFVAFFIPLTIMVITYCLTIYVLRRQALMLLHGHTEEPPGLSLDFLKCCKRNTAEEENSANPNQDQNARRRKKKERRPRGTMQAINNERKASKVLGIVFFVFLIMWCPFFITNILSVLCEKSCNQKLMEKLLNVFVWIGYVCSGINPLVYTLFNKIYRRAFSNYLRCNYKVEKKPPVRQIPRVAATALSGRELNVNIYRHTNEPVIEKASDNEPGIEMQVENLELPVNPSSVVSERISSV
The conditions noted are these: cited from earlier work.

The subject of another series is muscarinic receptors. The conditions noted are these: cited from earlier work.
For series [4] the following is noted: free base form; in water and in many organic solvents; cited from earlier work.
The conditions of series [5]: hydrochloride salt of U.S. Pat. No. 7,183,282; cited from earlier work.
The conditions of series [6]: hydrochloride salt of U.S. Pat. No. 7,183,282; cited from earlier work. This is another data set of the same source.

H1 histaminergic receptors, sequence (P35367 whole entry): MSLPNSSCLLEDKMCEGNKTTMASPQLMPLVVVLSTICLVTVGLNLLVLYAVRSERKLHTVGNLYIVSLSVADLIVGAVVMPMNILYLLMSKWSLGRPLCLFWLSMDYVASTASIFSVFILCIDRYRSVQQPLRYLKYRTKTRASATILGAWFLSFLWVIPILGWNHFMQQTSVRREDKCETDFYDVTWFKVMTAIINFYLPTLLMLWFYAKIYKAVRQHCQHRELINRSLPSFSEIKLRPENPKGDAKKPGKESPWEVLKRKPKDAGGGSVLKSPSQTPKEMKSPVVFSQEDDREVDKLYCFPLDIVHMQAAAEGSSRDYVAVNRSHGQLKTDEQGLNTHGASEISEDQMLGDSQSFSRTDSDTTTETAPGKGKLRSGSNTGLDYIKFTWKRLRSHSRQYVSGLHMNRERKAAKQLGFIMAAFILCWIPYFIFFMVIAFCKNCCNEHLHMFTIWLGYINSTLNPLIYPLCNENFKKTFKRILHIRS

Consider `CN1CCN2c3c(cccc31)C1CN(CCCC(=O)c3ccc(F)cc3)CCC12.NC(=O)c1ccncc1` (stereo not shown), for which, in series [1], the “Hygroscopicity (%)” value turned out to be 0.2% and the “hygroscopicity (in words)” value is listed as “not hygroscopic”. Besides, in series [1] (at 95 RH %), the mass uptake came out at 0.2%.

As for `CN1CCN2c3c(cccc31)[C@@H]1CN(CCCC(=O)c3ccc(F)cc3)CC[C@@H]12` [ITI-007, 1-(4-fluoro-phenyl)-4-((6bR,10aS)-3-methyl-2,3,6b,9,10,10a-hexahydro-1H,7H-pyrido[3′,4′:4,5]pyrrolo[1,2,3-de]quinoxalin-8-yl)-butan-1-one], the results for the solubility entry in series [2] and in series [4] were “poorly soluble” and “poor solubility”, respectively. Besides, the binding result (in series [3]; at 5-HT2C receptors; with muscarinic receptors) was “negligible binding” in each case.

`CN1CCN2c3c(cccc31)C1CN(CCCC(=O)c3ccc(F)cc3)CCC12.Cl` (stereo not shown) [hydrochloride salt form of ITI-007]: the hygroscopicity entry in series [5] was “hygroscopic”. In addition, the stability result in series [6] is listed as “poor stability”.
